Marks after values point to notes of the source that are not given here.
Columns and labels:
[1] = Phase 1 clinical pharmacokinetics in plasma; type: in vivo, human; settings: for AUC0-24, Mean (CV%) / AUC0-t, Mean (CV%) / CLz/F, Mean (CV%) / Cmax, Mean (CV%) / Tmax, median [Min-Max] / Vz/F, Mean (CV%) / t1/2z, Mean (CV%): Single dose; for AUC0-24,ss, Mean (CV%) / Cmax,ss, Mean (CV%) / Tmax,ss, median [Min-Max]: Steady State
FLT-1 = FLT-1 (Homo sapiens, UniProt P17948); experiment: Tyrosine kinase inhibition; type: biochemical; settings: read-out: IC50, FLT1
A375 cells = experiment: Tumor cell proliferation in vitro; type: cell-based, human
[2] = test system: human gastric cancer SGC-7901 tumors; experiment: SGC-7901 tumors in nude mice; type: in vivo
Source text: (§1) was higher than that of vandetanib .
as §1
Table S16. Efficacy of HA121-28 on human gastric cancer SGC-7901 tumors

Mouse micronucleus test = settings: in vivo mouse micronucleus test
PDGFRα = PDGFRα (Homo sapiens, UniProt P16234); experiment: Tyrosine kinase inhibition; type: biochemical
PDGFRβ = PDGFRβ (Homo sapiens, UniProt P09619); experiment: Tyrosine kinase inhibition; type: biochemical
EGFR(T790M /L828R) = EGFR(T790M /L828R) (Homo sapiens, UniProt P00533, T790M); experiment: Tyrosine kinase inhibition; type: biochemical
UniProt P00533, sequence (P00533 695-1210 T790M, form open): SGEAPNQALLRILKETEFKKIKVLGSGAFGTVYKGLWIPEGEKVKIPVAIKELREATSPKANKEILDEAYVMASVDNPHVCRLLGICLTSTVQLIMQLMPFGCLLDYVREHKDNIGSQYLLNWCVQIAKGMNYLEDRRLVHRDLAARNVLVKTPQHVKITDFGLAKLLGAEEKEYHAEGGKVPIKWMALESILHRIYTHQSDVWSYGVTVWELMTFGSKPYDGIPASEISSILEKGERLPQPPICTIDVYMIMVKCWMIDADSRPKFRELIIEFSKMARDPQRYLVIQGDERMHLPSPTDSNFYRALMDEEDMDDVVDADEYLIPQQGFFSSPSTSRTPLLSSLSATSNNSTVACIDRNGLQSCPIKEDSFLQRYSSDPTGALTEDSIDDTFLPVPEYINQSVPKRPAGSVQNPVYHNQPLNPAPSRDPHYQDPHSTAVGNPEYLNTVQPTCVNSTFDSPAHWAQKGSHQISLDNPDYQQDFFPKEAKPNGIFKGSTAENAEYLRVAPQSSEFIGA

PDGFRα, sequence (P16234 24-1089): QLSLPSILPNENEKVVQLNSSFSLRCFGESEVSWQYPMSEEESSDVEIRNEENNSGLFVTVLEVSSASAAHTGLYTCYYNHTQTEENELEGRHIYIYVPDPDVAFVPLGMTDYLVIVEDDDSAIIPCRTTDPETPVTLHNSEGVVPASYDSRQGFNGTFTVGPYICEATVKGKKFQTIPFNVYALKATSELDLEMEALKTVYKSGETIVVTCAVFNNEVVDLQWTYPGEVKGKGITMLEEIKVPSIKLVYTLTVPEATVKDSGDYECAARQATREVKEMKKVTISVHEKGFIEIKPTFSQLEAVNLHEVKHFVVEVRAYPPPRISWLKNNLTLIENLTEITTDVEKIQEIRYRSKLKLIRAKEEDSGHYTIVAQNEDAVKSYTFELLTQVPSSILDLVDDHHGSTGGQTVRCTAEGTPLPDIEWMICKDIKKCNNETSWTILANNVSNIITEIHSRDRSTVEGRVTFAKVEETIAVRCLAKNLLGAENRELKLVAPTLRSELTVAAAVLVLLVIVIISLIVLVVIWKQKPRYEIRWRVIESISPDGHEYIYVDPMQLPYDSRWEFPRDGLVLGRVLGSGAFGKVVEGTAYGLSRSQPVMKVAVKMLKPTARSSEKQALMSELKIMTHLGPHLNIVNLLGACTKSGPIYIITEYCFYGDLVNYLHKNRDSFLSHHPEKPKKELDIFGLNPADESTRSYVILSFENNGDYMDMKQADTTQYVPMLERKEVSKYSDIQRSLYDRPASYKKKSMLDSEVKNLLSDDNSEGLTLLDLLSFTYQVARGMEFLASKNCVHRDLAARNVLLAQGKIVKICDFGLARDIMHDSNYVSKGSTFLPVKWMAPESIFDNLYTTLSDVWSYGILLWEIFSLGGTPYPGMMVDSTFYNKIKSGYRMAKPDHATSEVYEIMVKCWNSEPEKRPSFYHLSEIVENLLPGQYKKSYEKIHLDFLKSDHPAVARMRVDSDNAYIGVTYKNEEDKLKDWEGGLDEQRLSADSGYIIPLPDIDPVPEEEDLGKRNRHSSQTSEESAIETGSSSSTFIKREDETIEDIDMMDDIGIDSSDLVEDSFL
PDGFRβ, sequence (P09619 33-1106): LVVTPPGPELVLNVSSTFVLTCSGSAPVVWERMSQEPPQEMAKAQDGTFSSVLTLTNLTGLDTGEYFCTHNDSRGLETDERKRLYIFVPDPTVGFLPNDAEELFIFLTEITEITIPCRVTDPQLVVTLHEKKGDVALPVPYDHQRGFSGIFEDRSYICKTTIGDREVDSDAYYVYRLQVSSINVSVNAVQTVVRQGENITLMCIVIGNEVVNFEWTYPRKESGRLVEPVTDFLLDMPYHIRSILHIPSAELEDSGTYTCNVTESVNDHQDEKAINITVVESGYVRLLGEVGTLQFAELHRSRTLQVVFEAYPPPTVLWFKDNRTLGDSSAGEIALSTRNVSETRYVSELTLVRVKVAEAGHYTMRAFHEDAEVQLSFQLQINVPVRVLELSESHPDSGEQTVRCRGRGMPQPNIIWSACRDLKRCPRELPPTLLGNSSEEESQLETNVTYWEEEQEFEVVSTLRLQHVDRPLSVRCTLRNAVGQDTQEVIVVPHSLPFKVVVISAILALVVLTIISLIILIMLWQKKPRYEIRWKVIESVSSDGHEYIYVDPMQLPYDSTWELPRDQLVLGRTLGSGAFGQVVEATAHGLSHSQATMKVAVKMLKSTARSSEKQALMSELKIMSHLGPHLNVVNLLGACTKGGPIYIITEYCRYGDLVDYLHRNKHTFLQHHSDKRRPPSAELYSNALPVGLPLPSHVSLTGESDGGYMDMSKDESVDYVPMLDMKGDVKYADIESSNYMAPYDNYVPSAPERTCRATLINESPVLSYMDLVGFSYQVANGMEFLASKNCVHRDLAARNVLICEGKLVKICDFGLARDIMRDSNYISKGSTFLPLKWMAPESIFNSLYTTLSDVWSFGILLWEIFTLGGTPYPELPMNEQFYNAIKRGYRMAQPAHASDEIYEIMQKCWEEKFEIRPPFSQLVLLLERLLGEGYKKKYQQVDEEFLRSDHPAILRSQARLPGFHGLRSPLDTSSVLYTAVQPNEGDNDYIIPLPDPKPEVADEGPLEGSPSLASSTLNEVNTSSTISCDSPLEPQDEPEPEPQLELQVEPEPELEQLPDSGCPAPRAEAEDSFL
FLT-1, sequence (P17948 27-1338): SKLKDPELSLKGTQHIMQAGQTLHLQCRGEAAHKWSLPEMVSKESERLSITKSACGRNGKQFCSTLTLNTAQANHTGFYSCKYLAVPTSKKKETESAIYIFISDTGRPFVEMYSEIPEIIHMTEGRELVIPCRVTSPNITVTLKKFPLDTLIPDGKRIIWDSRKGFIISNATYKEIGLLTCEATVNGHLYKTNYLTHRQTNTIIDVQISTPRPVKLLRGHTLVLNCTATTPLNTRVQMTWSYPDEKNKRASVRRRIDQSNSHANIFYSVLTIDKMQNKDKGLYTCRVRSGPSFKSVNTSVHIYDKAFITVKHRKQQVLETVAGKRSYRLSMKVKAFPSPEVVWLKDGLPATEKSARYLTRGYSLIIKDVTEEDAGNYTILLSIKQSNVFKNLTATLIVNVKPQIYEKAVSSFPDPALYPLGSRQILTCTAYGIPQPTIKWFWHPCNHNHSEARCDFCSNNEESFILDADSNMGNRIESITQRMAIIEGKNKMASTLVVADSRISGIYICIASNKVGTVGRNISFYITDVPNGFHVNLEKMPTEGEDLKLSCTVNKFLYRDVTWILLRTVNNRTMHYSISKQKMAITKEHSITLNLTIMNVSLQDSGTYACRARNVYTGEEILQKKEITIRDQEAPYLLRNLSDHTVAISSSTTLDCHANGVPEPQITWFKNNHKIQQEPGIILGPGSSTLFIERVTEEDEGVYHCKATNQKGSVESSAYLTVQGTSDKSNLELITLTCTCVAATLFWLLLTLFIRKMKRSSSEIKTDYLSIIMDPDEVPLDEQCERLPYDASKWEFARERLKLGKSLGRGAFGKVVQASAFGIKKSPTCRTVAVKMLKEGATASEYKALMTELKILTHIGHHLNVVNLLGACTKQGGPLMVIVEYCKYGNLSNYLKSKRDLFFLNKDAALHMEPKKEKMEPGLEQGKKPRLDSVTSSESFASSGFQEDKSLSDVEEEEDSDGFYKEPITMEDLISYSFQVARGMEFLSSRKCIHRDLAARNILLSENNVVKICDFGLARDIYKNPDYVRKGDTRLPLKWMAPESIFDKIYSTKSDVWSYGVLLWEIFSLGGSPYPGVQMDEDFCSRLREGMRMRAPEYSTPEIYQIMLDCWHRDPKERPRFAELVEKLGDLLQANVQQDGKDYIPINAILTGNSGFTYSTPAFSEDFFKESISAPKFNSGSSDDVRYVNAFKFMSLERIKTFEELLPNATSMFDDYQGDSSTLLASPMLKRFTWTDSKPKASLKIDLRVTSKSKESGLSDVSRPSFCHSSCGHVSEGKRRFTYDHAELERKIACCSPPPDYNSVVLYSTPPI

COc1cc2c(Nc3ccc(Br)cc3F)ncnc2cc1OCCCCN(C)C.Cl.Cl [HA121-28, N-(4-bromo-2-fluorophenyl)-7-(4-(dimethylamino)butoxy)-6-methoxy quinazolin-4-amine dihydrochloride]
AUC0-24, Mean (CV%) ([1]; 25 mg (N=1)): 237.1 (-) h*ng/mL | AUC0-t, Mean (CV%) ([1]; 25 mg (N=1)): 906.8 (-) h*ng/mL | CLz/F, Mean (CV%) ([1]; 25 mg (N=1)): 18.5 (-) L/h | Cmax, Mean (CV%) ([1]; 25 mg (N=1)): 15.6 (-) ng/mL | Tmax, median [Min-Max] ([1]; 25 mg (N=1)): 4 [4,4] h | Vz/F, Mean (CV%) ([1]; 25 mg (N=1)): 2971.7 (-) L | t1/2z, Mean (CV%) ([1]; 25 mg (N=1)): 111.2 (-) h | AUC0-24, Mean (CV%) ([1]; 50 mg (N=1)): 283.0 (-) h*ng/mL | AUC0-t, Mean (CV%) ([1]; 50 mg (N=1)): 1645.1 (-) h*ng/mL | CLz/F, Mean (CV%) ([1]; 50 mg (N=1)): 19.5 (-) L/h | Cmax, Mean (CV%) ([1]; 50 mg (N=1)): 15.6 (-) ng/mL | Tmax, median [Min-Max] ([1]; 50 mg (N=1)): 24 [24,24] h | Vz/F, Mean (CV%) ([1]; 50 mg (N=1)): 3137.7 (-) L | t1/2z, Mean (CV%) ([1]; 50 mg (N=1)): 111.6 (-) h | AUC0-24, Mean (CV%) ([1]; 100 mg (N=4)): 725.9 (306.5) h*ng/mL | AUC0-t, Mean (CV%) ([1]; 100 mg (N=4)): 3460.0 (1126.6) h*ng/mL | CLz/F, Mean (CV%) ([1]; 100 mg (N=4)): 18.8 (4.8) L/h | Cmax, Mean (CV%) ([1]; 100 mg (N=4)): 46.4 (27.0) ng/mL | Tmax, median [Min-Max] ([1]; 100 mg (N=4)): 6 [4-24] h | Vz/F, Mean (CV%) ([1]; 100 mg (N=4)): 2303.3 (37.5) L | t1/2z, Mean (CV%) ([1]; 100 mg (N=4)): 89.1 (23.8) h | AUC0-24, Mean (CV%) ([1]; 200 mg (N=4)): 1884.6 (514.6) h*ng/mL | AUC0-t, Mean (CV%) ([1]; 200 mg (N=4)): 7763.0 (2539.2) h*ng/mL | CLz/F, Mean (CV%) ([1]; 200 mg (N=4)): 21.6 (7.0) L/h | Cmax, Mean (CV%) ([1]; 200 mg (N=4)): 115.5 (32.7) ng/mL | Tmax, median [Min-Max] ([1]; 200 mg (N=4)): 8 [8-10] h | Vz/F, Mean (CV%) ([1]; 200 mg (N=4)): 2627.1 (1416.0) L | t1/2z, Mean (CV%) ([1]; 200 mg (N=4)): 80.7 (15.3) h | AUC0-24, Mean (CV%) ([1]; 300 mg (N=4)): 3037.9 (854.0) h*ng/mL | AUC0-t, Mean (CV%) ([1]; 300 mg (N=4)): 11276.6 (2463.8) h*ng/mL | CLz/F, Mean (CV%) ([1]; 300 mg (N=4)): 19.1 (3.8) L/h | Cmax, Mean (CV%) ([1]; 300 mg (N=4)): 193.0 (70.1) ng/mL | Tmax, median [Min-Max] ([1]; 300 mg (N=4)): 8 [2-8] h | Vz/F, Mean (CV%) ([1]; 300 mg (N=4)): 2307.1 (724.2) L | t1/2z, Mean (CV%) ([1]; 300 mg (N=4)): 83.1 (16.6) h | AUC0-24, Mean (CV%) ([1]; 450 mg (N=7)): 6271.3 (2275.9) h*ng/mL | AUC0-t, Mean (CV%) ([1]; 450 mg (N=7)): 20218.4 (7301.9) h*ng/mL | CLz/F, Mean (CV%) ([1]; 450 mg (N=7)): 16.2 (6.6) L/h | Cmax, Mean (CV%) ([1]; 450 mg (N=7)): 374.7 (140.6) ng/mL | Tmax, median [Min-Max] ([1]; 450 mg (N=7)): 8 [4-8] h | Vz/F, Mean (CV%) ([1]; 450 mg (N=7)): 2009.5 (706.2) L | t1/2z, Mean (CV%) ([1]; 450 mg (N=7)): 87.6 (11.7) h | AUC0-24, Mean (CV%) ([1]; 600 mg (N=5)): 8403.6 (4593.9) h*ng/mL | AUC0-t, Mean (CV%) ([1]; 600 mg (N=5)): 26818.4 (14650.1) h*ng/mL | CLz/F, Mean (CV%) ([1]; 600 mg (N=5)): 19.7 (8.1) L/h | Cmax, Mean (CV%) ([1]; 600 mg (N=5)): 500.0 (224.3) ng/mL | Tmax, median [Min-Max] ([1]; 600 mg (N=5)): 8 [4-8] h | Vz/F, Mean (CV%) ([1]; 600 mg (N=5)): 2163.4 (719.0) L | t1/2z, Mean (CV%) ([1]; 600 mg (N=5)): 80.8 (19.4) h | AUC0-24, Mean (CV%) ([1]; 800 mg (N=3)): 9721.8 (2598.4) h*ng/mL | AUC0-t, Mean (CV%) ([1]; 800 mg (N=3)): 33030.6 (10820.6) h*ng/mL | CLz/F, Mean (CV%) ([1]; 800 mg (N=3)): 19.9 (9.2) L/h | Cmax, Mean (CV%) ([1]; 800 mg (N=3)): 610.0 (200.1) ng/mL | Tmax, median [Min-Max] ([1]; 800 mg (N=3)): 8 [4-8] h | Vz/F, Mean (CV%) ([1]; 800 mg (N=3)): 2001.6 (613.2) L | t1/2z, Mean (CV%) ([1]; 800 mg (N=3)): 74.1 (24.6) h | AUC0-24,ss, Mean (CV%) ([1]; 25 mg (N=1)): 1629.1 (-) h*ng/mL | Cmax,ss, Mean (CV%) ([1]; 25 mg (N=1)): 77.2 (-) ng/mL | Tmax,ss, median [Min-Max] ([1]; 25 mg (N=1)): 2 [2,2] h | AUC0-24,ss, Mean (CV%) ([1]; 50 mg (N=1)): 2728.6 (-) h*ng/mL | Cmax,ss, Mean (CV%) ([1]; 50 mg (N=1)): 122.0 (-) ng/mL | Tmax,ss, median [Min-Max] ([1]; 50 mg (N=1)): 4 [4,4] h | AUC0-24,ss, Mean (CV%) ([1]; 100 mg (N=4)): 4785.0 (1808.2) h*ng/mL | Cmax,ss, Mean (CV%) ([1]; 100 mg (N=4)): 219.0 (75.2) ng/mL | Tmax,ss, median [Min-Max] ([1]; 100 mg (N=4)): 8 [4-8] h | AUC0-24,ss, Mean (CV%) ([1]; 200 mg (N=4)): 11332.7 (4944.0) h*ng/mL | Cmax,ss, Mean (CV%) ([1]; 200 mg (N=4)): 550.0 (229.2) ng/mL | Tmax,ss, median [Min-Max] ([1]; 200 mg (N=4)): 8 [8-8] h | AUC0-24,ss, Mean (CV%) ([1]; 300 mg (N=4)): 12969.9 (1048.1) h*ng/mL | Cmax,ss, Mean (CV%) ([1]; 300 mg (N=4)): 635.3 (30.1) ng/mL | Tmax,ss, median [Min-Max] ([1]; 300 mg (N=4)): 4 [4-4] h | AUC0-24,ss, Mean (CV%) ([1]; 450 mg (N=7)): 18460.0 (3291.4) h*ng/mL | Cmax,ss, Mean (CV%) ([1]; 450 mg (N=7)): 945.8 (189.0) ng/mL | Tmax,ss, median [Min-Max] ([1]; 450 mg (N=7)): 6 [4-8] h | AUC0-24,ss, Mean (CV%) ([1]; 600 mg (N=5)): 27965.4 (13872.8) h*ng/mL | Cmax,ss, Mean (CV%) ([1]; 600 mg (N=5)): 1453.0 (825.0) ng/mL | Tmax,ss, median [Min-Max] ([1]; 600 mg (N=5)): 4 [4-8] h | AUC0-24,ss, Mean (CV%) ([1]; 800 mg (N=3)): 23180.1 (3336.5) h*ng/mL | Cmax,ss, Mean (CV%) ([1]; 800 mg (N=3)): 1067.0 (216.4) ng/mL | Tmax,ss, median [Min-Max] ([1]; 800 mg (N=3)): 6 [4-8] h | time to steady state ([1]; multiple dosing): two | IC50 (FLT-1): 20.9 nM | IC50 (A375 cells): 716 ± 154 nM | RTV ±SD ([2]; 25 mg/kg): 7.2±1.0 | T/C ([2]; 25 mg/kg): 45.3% | Terminal Tumor Volume ([2]; 25 mg/kg): 1424.3±410.0** mm^3 | RTV ±SD ([2]; 50 mg/kg): 2.0±1.1 | T/C ([2]; 50 mg/kg): 12.8% | Terminal Tumor Volume ([2]; 50 mg/kg): 478.5±307.8** mm^3 | RTV ±SD ([2]; 75 mg/kg): 1.2±0.3 | T/C ([2]; 75 mg/kg): 7.6% | Terminal Tumor Volume ([2]; 75 mg/kg): 288.9±162.6** mm^3 | genetic toxicity (Mouse micronucleus test): negative | IC50 (PDGFRα): 58.7 nM | IC50 (PDGFRβ): 165 nM | IC50 (EGFR(T790M /L828R)): 166 nM
